Laboratory results: patent publication US20250059183A1, “PYRIDINE[4,3-D]PYRIMIDINE COMPOUND AS TLR7/8 AGONIST” (SHANGHAI VISONPHARMA CO., LTD., priority 2021, published 2025)

Key:
human TLR8 = molecular target: T1, human TLR8 (Homo sapiens, UniProt Q9NR97); assay: HEK-Blue hTLR8 SEAP reporter gene agonist assay; type: cell-based; conditions: HEK-Blue hTLR8 cells, 16 to 22 hours incubation
T1 construct: host or cells: HEK-Blue hTLR8 (HEK293-derived reporter cells)
T1 sequence (Q9NR97 27-1041): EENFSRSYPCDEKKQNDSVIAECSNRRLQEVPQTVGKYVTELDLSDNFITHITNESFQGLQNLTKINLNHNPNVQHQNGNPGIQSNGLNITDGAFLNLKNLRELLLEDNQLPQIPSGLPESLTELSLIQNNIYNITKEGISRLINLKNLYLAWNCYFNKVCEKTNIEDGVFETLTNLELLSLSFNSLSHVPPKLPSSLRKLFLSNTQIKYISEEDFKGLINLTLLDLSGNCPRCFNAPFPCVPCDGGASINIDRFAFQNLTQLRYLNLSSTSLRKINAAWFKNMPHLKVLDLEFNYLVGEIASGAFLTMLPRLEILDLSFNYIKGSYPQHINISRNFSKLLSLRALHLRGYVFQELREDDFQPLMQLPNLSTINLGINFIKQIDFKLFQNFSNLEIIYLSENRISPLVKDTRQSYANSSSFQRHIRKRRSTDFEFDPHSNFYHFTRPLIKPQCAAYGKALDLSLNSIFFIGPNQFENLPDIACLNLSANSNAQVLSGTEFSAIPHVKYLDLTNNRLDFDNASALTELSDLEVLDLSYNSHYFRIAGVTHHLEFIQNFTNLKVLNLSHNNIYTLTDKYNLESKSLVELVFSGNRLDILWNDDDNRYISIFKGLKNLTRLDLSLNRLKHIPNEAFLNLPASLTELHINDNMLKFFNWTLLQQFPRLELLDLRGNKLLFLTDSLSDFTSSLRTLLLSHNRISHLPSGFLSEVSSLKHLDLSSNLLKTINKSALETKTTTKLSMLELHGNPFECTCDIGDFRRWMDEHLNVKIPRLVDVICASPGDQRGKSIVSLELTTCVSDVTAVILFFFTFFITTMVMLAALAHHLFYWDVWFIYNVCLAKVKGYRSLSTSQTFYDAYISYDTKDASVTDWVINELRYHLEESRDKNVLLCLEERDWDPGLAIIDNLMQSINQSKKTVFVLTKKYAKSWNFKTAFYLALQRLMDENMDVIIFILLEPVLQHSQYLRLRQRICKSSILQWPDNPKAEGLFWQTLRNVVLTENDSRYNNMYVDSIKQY
Procedure: (§1) HEK-Blue™ cells that stably express human TLR7 or TLR8 are used to evaluate the agonistic activity of the compounds on TLR7 or TLR8, which is determined by the induction of the expression of SEAP reporter gene under the control of minimum IFN-β promoter fusion to 5×NF-κB and AP-1 binding sites. The assay is conducted as below:
(§2) HEK-Blue™ hTLR7 (Invivogen, 80,000 cells per well) or HEK-Blue™ hTLR8 (Invivogen, 60,000 cells per well) were added to the 96-well cell culture plate, followed by adding of the test compound. The final concentration of the test compound in the medium ranged from […], and was incubated for 16 to 22 hours. According to the manufacturer's instructions, the HEK-Blue assay reagent Quanti-blue (Invivogen) was used to measure SEAP levels in cell media. Optical density at 650 nm (OD650) was measured by Neo2 multifunction plate reader (Bio-tek). The half effective concentration (EC50) was calculated using GraphPad Prism.

human TLR7 = molecular target: T2, human TLR7 (Homo sapiens, UniProt Q9NYK1); assay: HEK-Blue hTLR7 SEAP reporter gene agonist assay; type: cell-based; conditions: HEK-Blue hTLR7 cells, 16 to 22 hours incubation
T2 construct: host or cells: HEK-Blue hTLR7 (HEK293-derived reporter cells)
T2 sequence (Q9NYK1 27-1049): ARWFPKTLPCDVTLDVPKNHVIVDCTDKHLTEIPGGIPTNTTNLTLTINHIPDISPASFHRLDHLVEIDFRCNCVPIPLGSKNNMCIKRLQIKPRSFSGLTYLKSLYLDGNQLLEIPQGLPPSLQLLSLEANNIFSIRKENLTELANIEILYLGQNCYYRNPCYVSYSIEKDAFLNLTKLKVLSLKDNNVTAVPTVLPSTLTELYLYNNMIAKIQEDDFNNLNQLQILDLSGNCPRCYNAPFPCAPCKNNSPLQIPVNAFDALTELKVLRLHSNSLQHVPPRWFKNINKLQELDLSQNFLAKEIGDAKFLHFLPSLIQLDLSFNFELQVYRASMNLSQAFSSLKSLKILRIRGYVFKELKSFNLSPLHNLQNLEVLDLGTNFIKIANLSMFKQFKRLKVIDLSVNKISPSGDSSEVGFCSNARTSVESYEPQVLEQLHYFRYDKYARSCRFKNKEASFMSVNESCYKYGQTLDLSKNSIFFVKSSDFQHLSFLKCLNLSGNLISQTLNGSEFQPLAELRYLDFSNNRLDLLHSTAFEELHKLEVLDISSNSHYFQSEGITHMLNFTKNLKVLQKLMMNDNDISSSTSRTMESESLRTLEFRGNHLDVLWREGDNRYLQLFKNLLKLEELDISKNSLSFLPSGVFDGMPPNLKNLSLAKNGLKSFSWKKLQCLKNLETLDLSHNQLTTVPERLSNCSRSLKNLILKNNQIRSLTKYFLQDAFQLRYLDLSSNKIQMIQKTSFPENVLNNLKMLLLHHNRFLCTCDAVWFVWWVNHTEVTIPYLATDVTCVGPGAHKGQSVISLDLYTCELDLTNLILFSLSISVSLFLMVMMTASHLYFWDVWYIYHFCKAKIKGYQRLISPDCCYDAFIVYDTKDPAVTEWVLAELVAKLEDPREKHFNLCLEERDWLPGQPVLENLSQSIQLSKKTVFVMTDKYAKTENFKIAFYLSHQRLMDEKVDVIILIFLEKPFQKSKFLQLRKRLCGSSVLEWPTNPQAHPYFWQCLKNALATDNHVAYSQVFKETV
Procedure: as §1, §2

SMILES | EC50 (human TLR8) [nM] | EC50 (human TLR7) [nM]
CCC[C@@H](C)Nc1nc(N)nc2ccn(Cc3ccc(C(=O)N4CC5CC(C4)N5)cc3)c(=O)c12 [Compound I-151, 6-(4-(3,6-diazabicyclo[3.1.1]heptane-3-carbonyl)benzyl)-2-amino-4-(((R)-pentan-2-yl)amino)pyrido[4,3-d]pyrimidin-5(6H)-one] | 30 | 80
CCC[C@@H](C)Nc1nc(N)nc2ccn(Cc3ccc(CN4CCN(CCCO)CC4)cc3OC)c(=O)c12 [Compound I-216, (R)-2-amino-6-(4-((4-(3-hydroxypropyl)piperazin-1-yl)methyl)-2-methoxybenzyl)-4-(pentan-2-ylamino)pyrido[4,3-d]pyrimidin-5(6H)-one] | 40 | 63
CCCCNc1nc(N)nc2ccn(Cc3ccc(C(=O)N4CCN(C(C)C)CC4)cc3)c(=O)c12 [Compound I-53, 2-amino-4-(butylamino)-6-(4-(4-isopropylpiperazine-1-carbonyl)benzyl)pyrido[4,3-d]pyrimidin-5(6H)-one] | 92 | 61
CCC[C@@H](CO)Nc1nc(N)nc2ccn(Cc3ccc(CN4CCCC4)cc3C)c(=O)c12 [Compound I-169, (S)-2-amino-4-((1-hydroxypentan-2-yl)amino)-6-(2-methyl-4-(pyrrolidin-1-ylmethyl)benzyl)pyrido[4,3-d]pyrimidin-5(6H)-one] | 20 | 70
CCCCNc1nc(N)nc2ccn(Cc3ccc(CCN(C)C)cc3)c(=O)c12 [Compound I-90, 2-amino-4-(butylamino)-6-(4-(2-(dimethylamino)ethyl)benzyl)pyrido[4,3-d]pyrimidin-5(6H)-one] | 47 | 68
CCCCNc1nc(N)nc2ccn(Cc3ccc(C(=O)N4CCN(C)CC4)c(OC)c3)c(=O)c12 [Compound I-79, 2-amino-4-(butylamino)-6-(3-methoxy-4-(4-methylpiperazine-1-carbonyl)benzyl)pyrido[4,3-d]pyrimidin-5(6H)-one] | 105 | 87
CCC[C@@H](CO)Nc1nc(N)nc2ccn(Cc3ccc(CNC)cc3OC)c(=O)c12 [Compound I-214, (S)-2-amino-4-((1-hydroxypentan-2-yl)amino)-6-(2-methoxy-4-((methylamino)methyl)benzyl)pyrido[4,3-d]pyrimidin-5(6H)-one] | 3 | 86
CCC[C@@H](C)Nc1nc(N)nc2ccn(Cc3ccc(C(=O)N4CCN(C(C)C)CC4)cc3OC)c(=O)c12 [Compound I-183, (R)-2-amino-6-(4-(4-isopropylpiperazine-1-carbonyl)-2-methoxybenzyl)-4-(pentan-2-ylamino)pyrido[4,3-d]pyrimidin-5(6H)-one] | 83 | 91
CCCCNc1nc(N)nc2ccn(Cc3ccc(C(=O)N4CCNCC4)cc3OC)c(=O)c12 [Compound I-72, 2-amino-4-(butylamino)-6-(2-methoxy-4-(piperazine-1-carbonyl)benzyl)pyrido[4,3-d]pyrimidin-5(6H1)-one] | 81 | 64
CCCCNc1nc(N)nc2ccn(Cc3ccc(CN4CCCC4)nc3OC)c(=O)c12 [Compound I-64, 2-amino-4-(butylamino)-6-((2-methoxy-6-(pyrrolidin-1-ylmethyl)pyridin-3-yl)methyl)pyrido[4,3-d]pyrimidin-5(6H)-one] | – | 67

The remaining lines, values ahead:

EC50 (human TLR8) [nM] | EC50 (human TLR7) [nM] | SMILES
49 | 55 | CCC[C@@H](C)Nc1nc(N)nc2ccn(Cc3ccc(C(=O)N4CCNCC4)cc3)c(=O)c12 [Compound I-117, (R)-2-amino-4-(pentan-2-ylamino)-6-(4-(piperazine-1-carbonyl)benzyl)pyrido[4,3-d]pyrimidin-5(6H)-one]
34 | 23 | CCC[C@@H](C)Nc1nc(N)nc2ccn(Cc3ccc(C(=O)N4CCN(CCO)CC4)cc3OC)c(=O)c12 [Compound I-123, (R)-2-amino-6-(4-(4-(2-hydroxyethyl)piperazine-1-carbonyl)-2-methoxybenzyl)-4-(pentan-2-ylamino)pyrido[4,3-d]pyrimidin-5(6H)-one]
20 | 50 | CCC[C@@H](C)Nc1nc(N)nc2ccn(Cc3ccc(CN(CCO)CCO)cc3)c(=O)c12 [Compound I-141, (R)-2-amino-6-(4-((bis(2-hydroxyethyl)amino)methyl)benzyl)-4-(pentan-2-ylamino)pyrido[4,3-d]pyrimidin-5(6H)-one]
58 | 54 | CCC[C@@H](C)Nc1nc(N)nc2ccn(Cc3ccc(C(=O)N4CCN(C)CC4)cc3OC)c(=O)c12 [Compound I-182, (R)-2-amino-6-(2-methoxy-4-(4-methylpiperazine-1-carbonyl)benzyl)-4-(pentan-2-ylamino)pyrido[4,3-d]pyrimidin-5(6H)-one]
1 | 31 | CCC[C@@H](CO)Nc1nc(N)nc2ccn(Cc3ccc(CN(C)C)cc3OC)c(=O)c12 [Compound I-195, (S)-2-amino-6-(4-((dimethylamino)methyl)-2-methoxybenzyl)-4-((1-hydroxypentan-2-yl)amino)pyrido[4,3-d]pyrimidin-5(6H)-one]
20 | 30 | CCC[C@@H](C)Nc1nc(N)nc2ccn(Cc3ccc(CN(C)CCO)cc3)c(=O)c12 [Compound I-139, (R)-2-amino-6-(4-(((2-hydroxyethyl)(methyl)amino)methyl)benzyl)-4-(pentan-2-ylamino)pyrido[4,3-d]pyrimidin-5(6H)-one]
4 | 60 | CCC[C@@H](CO)Nc1nc(N)nc2ccn(Cc3ccc(C(=O)N4CCN(C)CC4)cc3OC)c(=O)c12 [Compound I-212, (S)-2-amino-4-((1-hydroxypentan-2-yl)amino)-6-(2-methoxy-4-(4-methylpiperazine-1-carbonyl)benzyl)pyrido[4,3-d]pyrimidin-5(6H)-one]
20 | 20 | CCC[C@@H](C)Nc1nc(N)nc2ccn(Cc3ccc(CN(C)CCO)cc3OC)c(=O)c12 [Compound I-160, (R)-2-amino-6-(4-(((2-hydroxyethyl)(methyl)amino)methyl)-2-methoxybenzyl)-4-(pentan-2-ylamino)pyrido[4,3-d]pyrimidin-5(6H)-one]
